Tested on: Plasmodium falciparum 3D7
Experiment: P. falciparum 3D7 asexual blood stage assay, Assay Procedure Version 2 (SYBR green readout)
Type: cell-based
Conditions: Plasmodium falciparum, 3D7, Erythrocyte, 72 h, Version 2 of the assay procedure (asterisk *); 72 h incubation in infected erythrocytes; 50,000 nM to 15 nM
Outline: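 Parasite growth read as DNA fluorescence (SYBR green lysis overnight, ex 485/em 528 nm) after 72 h drug exposure of 3D7-infected erythrocytes at 0.5% parasitaemia, 5% haematocrit, 37 °C under 1% O2/3% CO2. Compounds tested 15–50,000 nM final, 0.5% DMSO; normalised to mefloquine (100%) and DMSO (0%), biphasic two-site EC50 fitting.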

| Structure (SMILES) | IC50 [nM] |
| --- | --- |
| C[C@@]1(c2cccc(Nc3ccc(OC(F)F)nc3)c2Cl)CC(=O)N([C@@H]2C[C@H]3CC[C@@H](C2)O3)C(=N)N1 (mixture of isomers) [Example 156, (6S)-6-(2-Chloro-3-{[6-(difluoromethoxy)pyridin-3-yl]-amino}phenyl)-2-imino-6-methyl-3-[(1SR,5RS)-8-oxa-bicyclo[3.2.1]octan-3-yl]-hexahydropyrimidin-4-one] | 2980 |
| C[C@@]1(c2cccc(Nc3ccc(F)cc3C#N)c2Cl)CC(=O)N([C@H]2C[C@@](C)(O)C2)C(=N)N1 [Example 127, 2-{2-Chloro-3-[(4S)-1-(3-hydroxy-3-methylcyclobutyl)-2-imino-4-methyl-6-oxo-hexahydropyrimidin-4-yl]-anilino}-5-fluorobenzonitrile] | 184 |
| Cc1ccc(Nc2cccc([C@]3(C)CC(=O)N([C@H]4CCO[C@@H](C)C4)C(=N)N3)c2Cl)cn1 (single isomer, unassigned) [Example 136] | 249 |
| CC[C@]1(O)C[C@H](N2C(=N)N[C@](C)(c3cccc(Nc4ccc(F)cc4)c3Cl)CC2=O)C1 [Example 177, (6S)-6-[2-Chloro-3-(4-fluoro-anilino)phenyl]-3-(3-ethyl-3-hydroxycyclobutyl)-2-imino-6-methylhexahydropyrimidin-4-one (trans isomer)] | 2450 |
| CC(C)(C)c1ccc(Nc2cccc([C@]3(C)CC(=O)N(C4CCOCC4)C(=N)N3)c2Cl)cc1 [Example 67, (6S)-6-[3-(4-tert-Butylanilino)-2-chlorophenyl]-2-imino-6-methyl-3-(tetrahydropyran-4-yl)hexahydropyrimidin-4-one] | 2580 |
| COc1ccncc1Nc1cccc([C@]2(C)CC(=O)N(C3CCOCC3)C(=N)N2)c1Cl [Example 54, (6S)-6-{2-Chloro-3-[(4-methoxypyridin-3-yl)amino]-phenyl}-2-imino-6-methyl-3-(tetrahydropyran-4-yl)-hexahydropyrimidin-4-one] | 655 |
| C[C@H]1C[C@H](N2C(=N)N[C@](C)(c3cccc(Nc4ccc(C5CC5)nc4)c3Cl)CC2=O)CCO1 (single isomer, unassigned; peak 2) [Example 194, (6S)-6-{2-Chloro-3-[(6-cyclo-propylpyridin-3-yl)amino]-phenyl}-2-imino-6-methyl-3-[(2S*,4R*)-2-methyltetrahydro-pyran-4-yl]hexahydropyrimidin-4-one (Peak 2)] | 747 |
| C[C@@]1(c2cccc(Nc3ccc(N4CCC4)nc3)c2Cl)CC(=O)N(C2CCOCC2)C(=N)N1 [Example 113, (6S)-6-(3-{[6-(Azetidin-1-yl)-pyridin-3-yl]amino}-2-chloro-phenyl)-2-imino-6-methyl-3-(tetrahydropyran-4-yl)-hexahydropyrimidin-4-one] | 225 |
| C[C@H]1C[C@H](N2C(=N)N[C@](C)(c3cccc(Nc4ccc(OC(F)F)nc4)c3Cl)CC2=O)CCO1 (single isomer, unassigned; peak 2) [Example 192, (6S)-6-(2-Chloro-3-{[6-(difluoromethoxy)pyridin-3-yl]-amino}phenyl)-2-imino-6-methyl-3-[(2S*,4R*)-2-methyl-tetrahydropyran-4-yl]-hexahydropyrimidin-4-one (Peak 2)] | 3700 |
| CC(C)(C)c1ncc(Nc2cccc([C@]3(C)CC(=O)N(C4CCOCC4)C(=N)N3)c2Cl)cn1 [Example 62, (6S)-6-{3-[(2-tert-Butyl-pyrimidin-5-yl)amino]-2-chloro-phenyl}-2-imino-6-methyl-3-(tetrahydropyran-4-yl)-hexahydropyrimidin-4-one] | 226 |
| C[C@@H]1C[C@H](N2C(=N)N[C@](C)(c3cccc(Nc4cc(F)c5ccnn5c4)c3Cl)CC2=O)CCO1 (stereo in doubt) [Example 137, (6S)-6-{2-Chloro-3-[(4-fluoro-pyrazolo[1,5-a]pyridin-6-yl)-amino]phenyl}-2-imino-6-methyl-3-[(cis)-2-methyl-tetrahydropyran-4-yl]-hexahydropyrimidin-4-one] | 158 |
| Cc1ccc(Nc2cccc([C@]3(C)CC(=O)N(C4CCOCC4)C(=N)N3)c2Cl)c(C#N)n1 [Example 88, 3-{2-Chloro-3-[(4S)-2-imino-4-methyl-6-oxo-1-(tetrahydro-pyran-4-yl)hexahydropyrimidin-4-yl]anilino}-6-methylpyridine-2-carbonitrile] | 532 |
| C[C@@]1(c2cccc(Nc3ccc(C4CC4)nc3)c2Cl)CC(=O)N(C2CCC(F)(F)CC2)C(=N)N1 [Example 142, (6S)-6-{2-Chloro-3-[(6-cyclo-propylpyridin-3-yl)amino]-phenyl}-3-(4,4-difluoro-cyclohexyl)-2-imino-6-methyl-hexahydropyrimidin-4-one] | 232 |
| CC(C)Oc1cccc(Nc2cccc([C@]3(C)CC(=O)N(C4CCOCC4)C(=N)N3)c2Cl)c1 [Example 74, (6S)-6-[2-Chloro-3-(3-isopropoxyanilino)phenyl]-2-imino-6-methyl-3-(tetrahydro-pyran-4-yl)hexahydropyrimidin-4-one] | 1290 |
| C[C@@]1(c2cccc(Nc3ccc(CC(F)(F)F)nc3)c2Cl)CC(=O)N(C2CCOCC2)C(=N)N1 [Example 119, (6S)-6-(2-Chloro-3-{[6-(2,2,2-trifluoroethyl)pyridin-3-yl]-amino}phenyl)-2-imino-6-methyl-3-(tetrahydropyran-4-yl)hexahydropyrimidin-4-one] | 237 |
| Cn1nnc(-c2ccc(Nc3cccc([C@]4(C)CC(=O)N(C5CCOCC5)C(=N)N4)c3Cl)cn2)n1 [Example 117, (6S)-6-(2-Chloro-3-{[6-(2-methyltetrazol-5-yl)pyridin-3-yl]amino}phenyl)-2-imino-6-methyl-3-(tetrahydropyran-4-yl)hexahydropyrimidin-4-one] | 707 |
| CN(C)c1ccc(Nc2cccc([C@]3(C)CC(=O)N(C4CCOCC4)C(=N)N3)c2Cl)cn1 [Example 72, (6S)-6-(2-Chloro-3-{[6-(dimethylamino)pyridin-3-yl]-amino}phenyl)-2-imino-6-methyl-3-(tetrahydropyran-4-yl)hexahydropyrimidin-4-one] | 325 |
| Cc1ccc(Nc2cccc([C@]3(C)CC(=O)N([C@@H]4CCO[C@H](C)C4)C(=N)N3)c2Cl)cn1 (single isomer, unassigned) [Example 135] | 21 |
| Cc1ccc(Nc2cccc([C@]3(C)CC(=O)N([C@H]4CCO[C@H](C)C4)C(=N)N3)c2Cl)cn1 (single isomer, unassigned; peak 1) [Example 195, (6S)-6-(2-Chloro-3-[(6-methyl-pyridin-3-yl)amino]phenyl}-2-imino-6-methyl-3-[(2R*,4S*)-2-methyltetrahydropyran-4-yl]-hexahydropyrimidin-4-one (Peak 1)] | 244 |
| C[C@@]1(c2cccc(Nc3ccc(C#N)nc3)c2Cl)CC(=O)N([C@H]2C[C@@](C)(O)C2)C(=N)N1 [Example 122, 5-{2-Chloro-3-[(4S)-1-(3-hydroxy-3-methylcyclobutyl)-2-imino-4-methyl-6-oxo-hexahydropyrimidin-4-yl]-anilino}pyridine-2-carbonitrile] | 4510 |

Same assay, conditions: Version 2 of the assay procedure (asterisk *); 72 h incubation in infected erythrocytes; 50,000 nM to 15 nM

| Structure (SMILES) | IC50 [nM] |
| --- | --- |
| CC1(C)CC(N2C(=N)N[C@](C)(c3cccc(Nc4ccc(C5CC5)nc4)c3Cl)CC2=O)CCO1 (single isomer, unassigned) [Example 147, (6S)-6-{2-Chloro-3-[(6-cyclo-propylpyridin-3-yl)amino]-phenyl}-3-[(4S*)-2,2-dimethyl-tetrahydropyran-4-yl]-2-imino-6-methylhexahydropyrimidin-4-one] | 287 |

From patent publication US11479546B2, “Antimalarial hexahydropyrimidine analogues” (UCB Biopharma SRL, priority 2018, dated 2022)
